Reference: paper PMC12274840 (The Journal of Biological Chemistry, 2025)
≈ marks a conversion by molar mass, not a printed value. Read-outs that look alike come from different tables or passages of the source.

Columns and labels:
[1] = test system: E. coli KA797 cells carrying pUK21 vector without the β-lactamase gene; experiment: microbe, parasite or virus in culture; assay type: cell-based; settings: Escherichia coli; antibiotic alone; pUK21 without β-lactamase gene; read-out: MIC
[2] = test system: E. coli KA797 cells carrying pUK21 with CTX-M-14 WT (Tat); experiment: microbe, parasite or virus in culture; assay type: cell-based; settings: Escherichia coli, antibiotic alone
[3] = test system: E. coli KA797 cells carrying pUK21 with NmcA (pelB/Sec); experiment: microbe, parasite or virus in culture; assay type: cell-based; settings: Escherichia coli, antibiotic alone
[4] = test system: E. coli KA797 cells carrying BlaC position 105 library; assay type: cell-based, Escherichia coli; settings: for Fi AVG (average fitness): relative to WT Ile; for Fi AVG (average fitness) / Fi MEM AVG: average of replicates; for Fi MEM AVG / Fi MEM 1 / Fi MEM 2 / Fi MEM 3 / Significance (Fi MEM AVG): meropenem; for Fi MEM 1: replicate 1; for Fi MEM 2: replicate 2; for Fi MEM 3: replicate 3

C[C@@H](O)[C@H]1C(=O)N2C(C(=O)O)=C(S[C@@H]3CN[C@H](C(=O)N(C)C)C3)[C@H](C)[C@H]12 [meropenem]
MIC [1]: 0.05 µg/mL (≈ 0.13 µM) | MIC [2]: 0.1 µg/mL (≈ 0.261 µM) | MIC [3]: 1.6 µg/mL (≈ 4.17 µM) | Fi AVG (average fitness) ([4]; AA 105 Ala (BlaC I105A)): -0.028 | Fi MEM AVG ([4]; AA 105 Ala): -0.183 | Fi MEM 1 ([4]; AA 105 Ala): -0.183 | Fi MEM AVG ([4]; AA 105 Arg): -0.097 | Fi MEM 1 ([4]; AA 105 Arg): 0.189 | Fi MEM 2 ([4]; AA 105 Arg): 0.262 | Fi MEM 3 ([4]; AA 105 Arg): -0.743 | Fi AVG (average fitness) ([4]; AA 105 Asn (BlaC I105N)): -0.021 | Fi MEM AVG ([4]; AA 105 Asn): -0.526 | Fi MEM 1 ([4]; AA 105 Asn): 0.793 | Fi MEM 2 ([4]; AA 105 Asn): -1.824 | Fi MEM 3 ([4]; AA 105 Asn): -0.547 | Fi AVG (average fitness) ([4]; AA 105 Asp (BlaC I105D)): -0.059 | Significance (Fi MEM AVG) ([4]; AA 105 Asp): - | Fi MEM AVG ([4]; AA 105 Asp): -1.181 | Fi MEM 1 ([4]; AA 105 Asp): -1.339 | Fi MEM 2 ([4]; AA 105 Asp): -1.644 | Fi MEM 3 ([4]; AA 105 Asp): -0.561 | Fi MEM AVG ([4]; AA 105 Cys): -0.623 | Fi MEM 1 ([4]; AA 105 Cys): -1.368 | Fi MEM 2 ([4]; AA 105 Cys): 1.109 | Fi MEM 3 ([4]; AA 105 Cys): -1.611 | Fi AVG (average fitness) ([4]; AA 105 Gln (BlaC I105Q)): -0.020 | Fi MEM AVG ([4]; AA 105 Gln): -1.909 | Fi MEM 2 ([4]; AA 105 Gln): -1.909 | Fi AVG (average fitness) ([4]; AA 105 Glu (BlaC I105E)): -0.058 | Significance (Fi MEM AVG) ([4]; AA 105 Glu): - | Fi MEM AVG ([4]; AA 105 Glu): -1.296 | Fi MEM 1 ([4]; AA 105 Glu): -1.915 | Fi MEM 2 ([4]; AA 105 Glu): 0.069 | Fi MEM 3 ([4]; AA 105 Glu): -2.043 | Fi AVG (average fitness) ([4]; AA 105 Gly (BlaC I105G)): -0.019 | Significance (Fi MEM AVG) ([4]; AA 105 Gly): - | Fi MEM AVG ([4]; AA 105 Gly): -1.447 | Fi MEM 1 ([4]; AA 105 Gly): -0.905 | Fi MEM 2 ([4]; AA 105 Gly): -2.832 | Fi MEM 3 ([4]; AA 105 Gly): -0.603 | Fi MEM AVG ([4]; AA 105 His): 0.129 | Fi MEM 1 ([4]; AA 105 His): 1.220 | Fi MEM 2 ([4]; AA 105 His): -0.828 | Fi MEM 3 ([4]; AA 105 His): -0.00649 | Fi MEM AVG ([4]; AA 105 Ile (WT)): 0.000 | Fi MEM 1 ([4]; AA 105 Ile (WT)): 0.000 | Fi MEM 2 ([4]; AA 105 Ile (WT)): 0.000 | Fi MEM 3 ([4]; AA 105 Ile (WT)): 0.000 | Significance (Fi MEM AVG) ([4]; AA 105 Leu): - | Fi MEM AVG ([4]; AA 105 Leu): -1.047 | Fi MEM 1 ([4]; AA 105 Leu): -0.470 | Fi MEM 2 ([4]; AA 105 Leu): -1.669 | Fi MEM 3 ([4]; AA 105 Leu): -1.001 | Significance (Fi MEM AVG) ([4]; AA 105 Lys): - | Fi MEM AVG ([4]; AA 105 Lys): -2.317 | Fi MEM 1 ([4]; AA 105 Lys): -1.936 | Fi MEM 2 ([4]; AA 105 Lys): -2.755 | Fi MEM 3 ([4]; AA 105 Lys): -2.261 | Fi MEM AVG ([4]; AA 105 Met): -0.579 | Fi MEM 1 ([4]; AA 105 Met): -0.023 | Fi MEM 2 ([4]; AA 105 Met): -0.087 | Fi MEM 3 ([4]; AA 105 Met): -1.628 | Significance (Fi MEM AVG) ([4]; AA 105 Phe): - | Fi MEM AVG ([4]; AA 105 Phe): -1.123 | Fi MEM 1 ([4]; AA 105 Phe): -0.896 | Fi MEM 2 ([4]; AA 105 Phe): -1.005 | Fi MEM 3 ([4]; AA 105 Phe): -1.468 | Fi AVG (average fitness) ([4]; AA 105 Pro (BlaC I105P)): -0.044 | Significance (Fi MEM AVG) ([4]; AA 105 Pro): - | Fi MEM AVG ([4]; AA 105 Pro): -1.653 | Fi MEM 1 ([4]; AA 105 Pro): -2.435 | Fi MEM 2 ([4]; AA 105 Pro): 0.050 | Fi MEM 3 ([4]; AA 105 Pro): -2.575 | Significance (Fi MEM AVG) ([4]; AA 105 Ser): - | Fi MEM AVG ([4]; AA 105 Ser): -1.018 | Fi MEM 1 ([4]; AA 105 Ser): -0.084 | Fi MEM 2 ([4]; AA 105 Ser): -1.824 | Fi MEM 3 ([4]; AA 105 Ser): -1.144 | Fi AVG (average fitness) ([4]; AA 105 Thr (BlaC I105T)): -0.015 | Significance (Fi MEM AVG) ([4]; AA 105 Thr): - | Fi MEM AVG ([4]; AA 105 Thr): -1.775 | Fi MEM 1 ([4]; AA 105 Thr): -1.838 | Fi MEM 2 ([4]; AA 105 Thr): -2.332 | Fi MEM 3 ([4]; AA 105 Thr): -1.155 | Fi MEM AVG ([4]; AA 105 Trp): -0.487 | Fi MEM 1 ([4]; AA 105 Trp): 0.050 | Fi MEM 2 ([4]; AA 105 Trp): -1.403 | Fi MEM 3 ([4]; AA 105 Trp): -0.109 | Fi AVG (average fitness) ([4]; AA 105 Tyr (BlaC I105Y)): -0.070 | Fi MEM AVG ([4]; AA 105 Tyr): -0.204 | Fi MEM 1 ([4]; AA 105 Tyr): 0.312 | Fi MEM 2 ([4]; AA 105 Tyr): -1.109
